Patent publication US20100311714A1, “1H-IMIDAZO[4,5-c]QUINOLINONE COMPOUNDS” (priority 2009, published 2010)
≈ marks a conversion by molar mass, not a printed value. Where two headings read alike, the source gives them in different places.

What was measured:
[1] = High-throughput equilibrium solubility at pH 6.8; assay type: physicochemical; details: pH 6.8, aqueous buffer, thermodynamic from solid; read-out: HT-Eq Sol/pH 6.8
Outline: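 Solubility was measured at pH 6.8 following the cited Zhou et al. (2007) procedure.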

PI3K alfa = molecular target: T1, PI3K alfa (Homo sapiens, UniProt P42336); test: PI3K alpha kinase assay (Kinase-Glo luminescence); assay type: biochemical
T1 construct: His tag (C); made in house; host or cells: baculovirus BV1075; Tn5 (Trichoplusia ni) or TiniPro insect cells
T1 sequence (P42336 with tags, fused parts or gaps limits assumed): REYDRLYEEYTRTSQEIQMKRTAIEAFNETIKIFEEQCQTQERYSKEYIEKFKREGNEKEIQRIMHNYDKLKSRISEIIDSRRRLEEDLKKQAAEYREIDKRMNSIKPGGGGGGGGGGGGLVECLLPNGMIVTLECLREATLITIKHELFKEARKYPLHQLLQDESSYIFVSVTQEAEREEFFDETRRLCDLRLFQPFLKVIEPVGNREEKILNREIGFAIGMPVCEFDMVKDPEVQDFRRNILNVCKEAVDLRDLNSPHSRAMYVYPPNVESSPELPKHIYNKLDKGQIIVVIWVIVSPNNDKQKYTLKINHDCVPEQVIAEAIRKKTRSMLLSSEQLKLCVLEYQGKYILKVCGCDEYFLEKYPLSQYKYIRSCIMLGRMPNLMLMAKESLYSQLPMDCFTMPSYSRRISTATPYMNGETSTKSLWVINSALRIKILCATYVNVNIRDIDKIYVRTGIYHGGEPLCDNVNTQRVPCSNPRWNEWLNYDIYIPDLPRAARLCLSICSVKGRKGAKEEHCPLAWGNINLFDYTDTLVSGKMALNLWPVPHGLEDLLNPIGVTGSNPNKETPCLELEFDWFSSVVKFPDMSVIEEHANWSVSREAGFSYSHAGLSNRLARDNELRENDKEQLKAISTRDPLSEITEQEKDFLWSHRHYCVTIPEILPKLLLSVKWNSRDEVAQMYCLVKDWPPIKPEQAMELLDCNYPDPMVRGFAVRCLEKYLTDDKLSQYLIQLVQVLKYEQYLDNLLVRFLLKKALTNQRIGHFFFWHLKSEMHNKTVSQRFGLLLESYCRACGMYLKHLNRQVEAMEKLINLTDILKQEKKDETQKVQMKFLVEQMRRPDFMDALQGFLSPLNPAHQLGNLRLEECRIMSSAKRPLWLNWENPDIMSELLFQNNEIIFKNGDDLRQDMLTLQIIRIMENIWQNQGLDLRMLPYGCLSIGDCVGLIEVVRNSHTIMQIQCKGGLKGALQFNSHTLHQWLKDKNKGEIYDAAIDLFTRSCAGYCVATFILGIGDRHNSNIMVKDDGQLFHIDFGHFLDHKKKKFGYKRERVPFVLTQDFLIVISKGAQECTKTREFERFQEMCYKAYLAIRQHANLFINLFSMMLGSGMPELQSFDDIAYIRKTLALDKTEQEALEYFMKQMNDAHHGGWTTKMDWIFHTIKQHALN
Outline: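 Kinase-Glo luminescence read of ATP remaining after PI3Kα (10 nM) phosphorylates 10 μg/mL bovine liver phosphatidylinositol with 1 μM ATP, pH 7.5 TRIS, 3 mM MgCl2, 0.05% CHAPS; 60 min at room temperature. IC50 from 4-parameter logistic fit over 8 concentrations.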

PI3K delta = molecular target: T2, PI3K delta (Homo sapiens, UniProt O00329); test: PI3K delta kinase assay (Kinase-Glo luminescence); assay type: biochemical
T2 construct: for the full-length p110-d subunit are generated and fused by overlapping PCR; His tag (C); made in house; host or cells: baculovirus BV1060; Tn5 (Trichoplusia ni) or TiniPro insect cells
T2 sequence (O00329 with tags, fused parts or gaps limits assumed): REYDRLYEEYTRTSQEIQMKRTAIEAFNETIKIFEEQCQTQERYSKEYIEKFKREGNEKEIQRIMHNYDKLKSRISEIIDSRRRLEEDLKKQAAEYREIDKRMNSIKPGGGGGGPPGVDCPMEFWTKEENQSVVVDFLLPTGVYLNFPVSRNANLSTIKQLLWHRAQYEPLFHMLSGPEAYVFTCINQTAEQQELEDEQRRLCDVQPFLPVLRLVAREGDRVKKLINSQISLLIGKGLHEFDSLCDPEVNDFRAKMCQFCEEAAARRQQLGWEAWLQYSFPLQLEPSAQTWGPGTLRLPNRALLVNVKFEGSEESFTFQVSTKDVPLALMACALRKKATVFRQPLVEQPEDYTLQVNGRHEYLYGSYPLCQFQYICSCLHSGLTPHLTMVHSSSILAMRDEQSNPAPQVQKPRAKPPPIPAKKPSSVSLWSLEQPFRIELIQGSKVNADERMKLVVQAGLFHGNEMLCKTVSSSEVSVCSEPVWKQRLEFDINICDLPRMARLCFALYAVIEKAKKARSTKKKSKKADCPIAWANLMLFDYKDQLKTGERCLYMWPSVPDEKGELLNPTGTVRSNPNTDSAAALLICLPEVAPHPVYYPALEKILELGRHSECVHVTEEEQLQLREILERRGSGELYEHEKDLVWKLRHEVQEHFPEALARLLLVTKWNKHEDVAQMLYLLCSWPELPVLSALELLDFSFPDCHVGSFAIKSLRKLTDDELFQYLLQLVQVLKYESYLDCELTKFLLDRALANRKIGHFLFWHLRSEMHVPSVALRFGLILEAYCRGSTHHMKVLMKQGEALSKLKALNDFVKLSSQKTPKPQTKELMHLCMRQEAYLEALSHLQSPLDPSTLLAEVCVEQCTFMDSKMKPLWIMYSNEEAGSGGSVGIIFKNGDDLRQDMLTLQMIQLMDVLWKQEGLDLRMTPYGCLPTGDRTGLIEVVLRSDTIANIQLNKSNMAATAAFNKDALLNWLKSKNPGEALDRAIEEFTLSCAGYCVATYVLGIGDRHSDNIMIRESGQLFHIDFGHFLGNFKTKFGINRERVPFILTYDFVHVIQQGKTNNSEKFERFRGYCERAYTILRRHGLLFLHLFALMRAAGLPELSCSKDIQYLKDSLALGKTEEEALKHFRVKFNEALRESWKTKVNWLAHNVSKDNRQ
Outline: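 Kinase-Glo ATP-depletion luminescence using 10 nM p85(iSH2)-linker-p110δ full-length His-tag construct from insect cells, with 1 μM ATP and 10 μg/mL phosphatidylinositol in 10 mM Tris pH 7.5, 3 mM MgCl2, 50 mM NaCl, 0.05% CHAPS, 1 mM DTT. 60 min room temperature; IC50 from 4-parameter logistic fit over 8 concentrations.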

Row | solubility thermodynamic [1] | IC50 (PI3K alfa; read-out: PI3Kalfa/IC50) | IC50 (PI3K delta; read-out: PI3Kdelta/IC50) | IC50 (PI3K alfa; read-out: EPK_PI3Kalfa/IC50) | IC50 (PI3K delta; read-out: EPK_PI3Kdelta/IC50) | Compound
1 | 61 µg/mL (≈ 119 µM) | 58 nM | 66 nM |  |  | CCOc1ccc(-c2ccc3ncc4c(c3c2)n(-c2ccc(N3CCNCC3)nc2OC)c(=O)n4C)cn1 [Example 9.1, 8-(6-Ethoxy-pyridin-3-yl)-1-(2-methoxy-6-piperazin-1-yl-pyridin-3-yl)-3-methyl-1,3-dihydro-imidazo[4,5-c]quinolin-2-one]
2 | 23 µg/mL (≈ 40.8 µM) |  |  | 28 nM | 12 nM | CCNc1ncc(-c2ccc3ncc4c(c3c2)n(-c2ccc(N3CC[C@@H](O)C3)nc2C)c(=O)n4C)cc1C(F)(F)F [Example 34.2, 8-(6-Ethylamino-5-trifluoromethyl-pyridin-3-yl)-1-[6-((R)-3-hydroxy-pyrrolidin-1-yl)-2-methyl-pyridin-3-yl]-3-methyl-1,3-dihydro-imidazo[4,5-c]quinolin-2-one]
3 | 204 µg/mL (≈ 424 µM) |  |  | 7 nM | 16 nM | Cc1nc(N2CCC2)ccc1-n1c(=O)n(C)c2cnc3ccc(-c4cncc(C(C)(C)O)c4)cc3c21 [Example 23.3, 1-(6-Azetidin-1-yl-2-methyl-pyridin-3-yl)-8-[5-(1-hydroxy-1-methyl-ethyl)-pyridin-3-yl]-3-methyl-1,3-dihydro-imidazo[4,5-c]quinolin-2-one]
4 | 7 µg/mL (≈ 13.2 µM) |  |  | 188 nM | 60 nM | CCOc1cc(-c2ccc3ncc4c(c3c2)n(-c2ccc(OCCOC)nc2C)c(=O)n4C)cnc1COC [Example 22.1, 8-(5-Ethoxy-6-methoxymethyl-pyridin-3-yl)-1-[6-(2-methoxy-ethoxy)-2-methyl-pyridin-3-yl]-3-methyl-1,3-dihydro-imidazo[4,5-c]quinolin-2-one]
5 | 22 µg/mL (≈ 39.1 µM) |  |  | 5 nM | 5 nM | Cc1nc(N2CCN(C)C(=O)C2)ccc1-n1c(=O)n(C)c2cnc3ccc(-c4cnc(N)c(C(F)(F)F)c4)cc3c21 [Example 21.1, 8-(6-Amino-5-trifluoromethyl-pyridin-3-yl)-3-methyl-1-[2-methyl-6-(4-methyl-3-oxo-piperazin-1-yl)-pyridin-3-yl]-1,3-dihydro-imidazo[4,5-c]quinolin-2-one]
6 | 427 µg/mL (≈ 814 µM) |  |  | 18 nM | 59 nM | COC1CCN(c2ccc(-n3c(=O)n(C)c4cnc5ccc(-c6cncc(C(C)(C)O)c6)cc5c43)c(C)n2)C1 (stereo not drawn) [Example 28.1, 8-[5-(1-Hydroxy-1-methyl-ethyl)-pyridin-3-yl]-1-[6-(3-methoxy-pyrrolidin-1-yl)-2-methyl-pyridin-3-yl]-3-methyl-1,3-dihydro-imidazo[4,5-c]quinolin-2-one]
7 | 2 µg/mL (≈ 4.66 µM) | 67 nM | 71 nM |  |  | CCOc1ccc(-c2ccc3ncc4c(c3c2)n(-c2ccc(F)nc2C)c(=O)n4C)cn1 [Example 7.3, 8-(6-Ethoxy-pyridin-3-yl)-1-(6-fluoro-2-methyl-pyridin-3-yl)-3-methyl-1,3-dihydro-imidazo[4,5-c]quinolin-2-one]
8 | 187 µg/mL (≈ 356 µM) |  |  | 67 nM | 43 nM | CCOc1cc(-c2ccc3ncc4c(c3c2)n(-c2ccc(N3CCCC3)nc2C)c(=O)n4C)cnc1COC [Example 25.2, 8-(5-Ethoxy-6-methoxymethyl-pyridin-3-yl)-3-methyl-1-(2-methyl-6-pyrrolidin-1-yl-pyridin-3-yl)-1,3-dihydro-imidazo[4,5-c]quinolin-2-one]

Continued, compound first:

Row | Compound | solubility thermodynamic [1] | IC50 (PI3K alfa; read-out: PI3Kalfa/IC50) | IC50 (PI3K delta; read-out: PI3Kdelta/IC50) | IC50 (PI3K alfa; read-out: EPK_PI3Kalfa/IC50) | IC50 (PI3K delta; read-out: EPK_PI3Kdelta/IC50)
9 | COc1ncc(-c2ccc3ncc4c(c3c2)n(-c2ccc(N3CC(O)C3)nc2C)c(=O)n4C)c(OC)n1 [Example 29.6, 8-(2,4-Dimethoxy-pyrimidin-5-yl)-1-[6-(3-hydroxy-azetidin-1-yl)-2-methyl-pyridin-3-yl]-3-methyl-1,3-dihydro-imidazo[4,5-c]quinolin-2-one] | 15 µg/mL (≈ 30 µM) |  |  | 23 nM | 10 nM
10 | CCOc1ccc(-c2ccc3ncc4c(c3c2)n(-c2ccc(C(C)(C)O)nc2C)c(=O)n4C)cn1 [Example 31.4, 8-(6-Ethoxy-pyridin-3-yl)-1-[6-(1-hydroxy-1-methyl-ethyl)-2-methyl-pyridin-3-yl]-3-methyl-1,3-dihydro-imidazo[4,5-c]quinolin-2-one] | 5 µg/mL (≈ 10.6 µM) |  |  | 84 nM | 36 nM
11 | CCOc1ncc(-c2ccc3ncc4c(c3c2)n(-c2ncccc2C)c(=O)n4C)cn1 [Example 3.1, 8-(2-Ethoxy-pyrimidin-5-yl)-3-methyl-1-(3-methyl-pyridin-2-yl)-1,3-dihydro-imidazo[4,5-c]quinolin-2-one] | 39 µg/mL (≈ 94.6 µM) | 410 nM | 851 nM |  | 
12 | COc1nc(N2CCNCC2)ccc1-n1c(=O)n(C)c2cnc3ccc(-c4cnc(N)c(C(F)(F)F)c4)cc3c21 [Example 9.2, 8-(6-Amino-5-trifluoromethyl-pyridin-3-yl)-1-(2-methoxy-6-piperazin-1-yl-pyridin-3-yl)-3-methyl-1,3-dihydro-imidazo[4,5-c]quinolin-2-one] | 13 µg/mL (≈ 23.6 µM) | 18 nM | 15 nM |  | 
13 | Cc1cccnc1-n1c(=O)n(C)c2cnc3ccc(-c4ccc(C(N)=O)cc4)cc3c21 [Example 3.3, 4-[3-Methyl-1-(3-methyl-pyridin-2-yl)-2-oxo-2,3-dihydro-1H-imidazo[4,5-c]quinolin-8-yl]-benzamide] | 5 µg/mL (≈ 12.2 µM) | 51 nM | 834 nM |  | 
14 | Cc1ncccc1-n1c(=O)n(C)c2cnc3ccc(-c4cncc(N)c4)cc3c21 [Example 2.25, 8-(5-Amino-pyridin-3-yl)-3-methyl-1-(2-methyl-pyridin-3-yl)-1,3-dihydro-imidazo[4,5-c]quinolin-2-one] | 228 µg/mL (≈ 596 µM) |  |  | 64 nM | 57 nM
15 | Cc1ccncc1-n1c(=O)n(C)c2cnc3ccc(-c4ccc(CO)nc4)cc3c21 [Example 4.1, 8-(6-Hydroxymethyl-pyridin-3-yl)-3-methyl-1-(4-methyl-pyridin-3-yl)-1,3-dihydro-imidazo[4,5-c]quinolin-2-one] | 75 µg/mL (≈ 189 µM) | 230 nM | 406 nM |  | 
16 | CCOc1ncc(-c2ccc3ncc4c(c3c2)n(-c2cccnc2C)c(=O)n4C)cn1 [Example 2.5, 8-(2-Ethoxy-pyrimidin-5-yl)-3-methyl-1-(2-methyl-pyridin-3-yl)-1,3-dihydro-imidazo[4,5-c]quinolin-2-one] | 48 µg/mL (≈ 116 µM) | 119 nM | 58 nM |  | 
17 | Cc1nc(N(C)CCO)ccc1-n1c(=O)n(C)c2cnc3ccc(-c4cnc(N)c(C(F)(F)F)c4)cc3c21 [Example 26.1, 8-(6-Amino-5-trifluoromethyl-pyridin-3-yl)-1-{6-[(2-hydroxy-ethyl)-methyl-amino]-2-methyl-pyridin-3-yl}-3-methyl-1,3-dihydro-imidazo[4,5-c]quinolin-2-one] | 4 µg/mL (≈ 7.64 µM) |  |  | 12 nM | < 3 nM
18 | CNc1cncc(-c2ccc3ncc4c(c3c2)n(-c2cccnc2C)c(=O)n4C)c1 [Example 2.26, 3-Methyl-8-(5-methylamino-pyridin-3-yl)-1-(2-methyl-pyridin-3-yl)-1,3-dihydro-imidazo[4,5-c]quinolin-2-one] | 115 µg/mL (≈ 290 µM) |  |  | 14 nM | 46 nM
19 | CNc1ccc(-c2ccc3ncc4c(c3c2)n(-c2cccnc2C)c(=O)n4C)cn1 [Example 2.13, 3-Methyl-8-(6-methylamino-pyridin-3-yl)-1-(2-methyl-pyridin-3-yl)-1,3-dihydro-imidazo[4,5-c]quinolin-2-one] | 56 µg/mL (≈ 141 µM) | 14 nM | 20 nM |  | 
20 | Cc1nc(F)ccc1-n1c(=O)n(C)c2cnc3ccc(-c4cnc(N)c(C(F)(F)F)c4)cc3c21 [Example 7.1, 8-(6-Amino-5-trifluoromethyl-pyridin-3-yl)-1-(6-fluoro-2-methyl-pyridin-3-yl)-3-methyl-1,3-dihydro-imidazo[4,5-c]quinolin-2-one] | 47 µg/mL (≈ 100 µM) | 4 nM | 5 nM |  | 
21 | COc1ncccc1-n1c(=O)n(C)c2cnc3ccc(-c4cnc5[nH]ccc5c4)cc3c21 [Example 1.2, 1-(2-Methoxy-pyridin-3-yl)-3-methyl-8-(1H-pyrrolo[2,3-b]pyridin-5-yl)-1,3-dihydro-imidazo[4,5-c]quinolin-2-one] | 3 µg/mL (≈ 7.1 µM) | 15 nM | 13 nM |  | 
22 | CNc1ncc(-c2ccc3ncc4c(c3c2)n(-c2ccc(N(C)CCO)nc2C)c(=O)n4C)cn1 [Example 26.2, 1-{6-[(2-Hydroxy-ethyl)-methyl-amino]-2-methyl-pyridin-3-yl}-3-methyl-8-(2-methylamino-pyrimidin-5-yl)-1,3-dihydro-imidazo[4,5-c]quinolin-2-one] | 23 µg/mL (≈ 48.9 µM) |  |  | 63 nM | 88 nM
23 | Cc1ncccc1-n1c(=O)n(C)c2cnc3ccc(-c4ccc(C(N)=O)cc4)cc3c21 [Example 2.3, 4-[3-Methyl-1-(2-methyl-pyridin-3-yl)-2-oxo-2,3-dihydro-1H-imidazo[4,5-c]quinolin-8-yl]-benzamide] | 15 µg/mL (≈ 36.6 µM) | 20 nM | 93 nM |  | 
